Measurements as given in article PMC5571359, “Screening the Medicines for Malaria Venture Pathogen Box across Multiple Pathogens Reclassifies Starting Points for Open-Source Drug Discovery” (Antimicrobial Agents and Chemotherapy, 2017).
Where two headings read alike, the source gives them in different places.

What was measured:
[1] = tested on: T. cruzi intracellular amastigotes; experiment: Intracellular anti-Trypanosoma cruzi image-based assay (amastigotes); type: cell-based
[2] = tested on: T. cruzi C4 β-galactosidase reporter parasite in MRC 5SV2 host cells; conditions: cited from earlier work
T. brucei brucei = conditions: ref Pbox supporting information; read-out: T.b. brucei Pbox IC50; cited from earlier work
T. brucei rhodesiense = conditions: ref Pbox supporting information; read-out: T .b. rohdensie Pbox IC50; cited from earlier work
[3] = tested on: L. donovani axenic amastigotes; parameters: method as in PBox supporting information; conditions: ref PBox supporting information; cited from earlier work
[4] = tested on: L. infanium (macrophages); parameters: method as in Pbox supporting information; conditions: ref Pbox supporting information; cited from earlier work
[5] = tested on: L. donovani (macrophages); parameters: method as in Pbox supporting information; conditions: ref Pbox supporting information; cited from earlier work
infected PMM = tested on: infected PMM; parameters: method as in Pbox supporting information; conditions: ref Pbox supporting information, read-out: Toxicity on infected PMM Pbox IC50; cited from earlier work
HepG2 = conditions: ref PBox supporting information, cited from earlier work
HEK293 cells = experiment: HEK293 resazurin cell cytotoxicity assay; conditions: Homo sapiens
[6] = tested on: T. b. brucei 427 bloodstream trypanosomes; experiment: T. b. brucei resazurin viability assay; type: cell-based, Trypanosoma brucei brucei; conditions: for IC50: Trypanosoma brucei
[7] = tested on: L. donovani MHOM/IN/80/DD8 intracellular amastigotes; experiment: Leishmania donovani intracellular amastigote assay in THP-1 cells; type: cell-based; conditions: Leishmania donovani
L. major = tested on: L. major; parameters: method as in Pbox supporting information; conditions: ref Pbox supporting information; cited from earlier work
[8] = tested on: Plasmodium falciparum 3D7 asexual blood stage; experiment: microbe, parasite or virus in culture
[9] = tested on: NF54-pfs16-LUC-GFP stage IV gametocytes; experiment: Plasmodium falciparum late stage gametocyte (LSG) image-based assay; type: cell-based; conditions: Plasmodium falciparum, NF54, read-out: Antiplasmodial IC50 (GAM / LSG), PBox compounds, stage IV gametocytes, single determination
[10] = HEK293 resazurin cell cytotoxicity assay; conditions: human
P. falciparum ABS = conditions: ChEMBL Data, TCMDC set, P. falciparum; read-out: TCMDC (ref 93) EX50; cited from earlier work
[11] = Trypanosoma cruzi, intracellular amastigotes, read-out: T cruzi Discovery Biology IC50
[12] = ref Pbox supporting information, read-out: T. cruzi Pbox IC50
[13] = HEK293, read-out: HEK % Inhibition 20uM/IC50 Discovery Biology
[14] = read-out: T b.brucei Discovery Biology IC50
[15] = 3D7, read-out: Antiplasmodial IC50 (ABS), PBox compounds, P. falciparum 3D7
[16] = Trypanosoma cruzi, 48 h, read-out: IC50 T. cruzi (Discovery Biology)
[17] = read-out: IC50 T. brucei brucei (Discovery Biology)

## Clc1ccc(Cl)c(CO[C@H]2CCCC[C@@H]2n2ccnc2)c1 [MMV676048]
[1]; Trypanosoma cruzi, PBox kinetoplastid set compounds active against T. cruzi alone, read-out: Emax against T. cruzi (subefficacious effect)
  Emax: < 100%
[1]; [11]
  IC50: 3.21 µM
[2]; [12]
  IC50: 1.36 µM
T. brucei brucei
  IC50: > 32 µM
T. brucei rhodesiense
  IC50: 22.9 µM
[3]
  IC50: 15.6 µM
[4]
  IC50: 16.2 µM
[5]
  IC50: 12.8 µM
Infected PMM
  IC50: 30 µM
HepG2
  HepG2 PBox CC20: 37.1 µM
HEK293 cells; [13]
  IC50: > 20 µM

## Cc1ncc(-c2ccnc(Nc3ccc(S(C)(=O)=O)cc3)n2)n1C(C)C [MMV676604]
[1]; [11]
  IC50: 1.18 µM
[6]; [14]
  IC50: 0.14 µM
[7]; THP-1, intracellular amastigotes, some values marked *, read-out: L, donovani Discovery Biology IC50
  IC50: 4.82 µM
[2]; [12]
  IC50: 1.08 µM
T. brucei brucei
  IC50: 0.26 µM
T. brucei rhodesiense
  IC50: < 0.13 µM
L. major
  IC50: 3.15 µM
[4]
  IC50: 1.15 µM
HepG2
  HepG2 PBox CC20: 0.179 µM
[8]; 3D7, read-out: Pf 3D7 Discovery Biology IC50, P. falciparum 3D7 asexual blood stage
  IC50: 3.23 µM
HEK293 cells; HEK293, read-out: HEK % Discovery Biology IC50
  IC50: 2.7 µM

## CN1CCN(S(=O)(=O)c2ccc(-c3ccc4c(Nc5ncc(Cl)cn5)ccnc4c3)cc2)CC1 [MMV688283]
[9]
  IC50: 4.1 µM
[6]; [14]
  IC50: 5.29 µM
[2]; [12]
  IC50: 3.81 µM
T. brucei brucei
  IC50: 3.78 µM
T. brucei rhodesiense
  IC50: 0.96 µM
L. major
  IC50: 8.51 µM
[4]
  IC50: 2.54 µM
HepG2
  HepG2 PBox CC20: 8.0 µM
[8]; [15]
  IC50: 0.66 µM
HEK293 cells; [13]
  IC50: > 20 µM

## Cc1nc(-c2ccccn2)nc(NCCc2ccc(S(C)(=O)=O)cc2)c1Cl [MMV658993]
[2]; [12]
  IC50: 4.44 µM
T. brucei brucei
  IC50: > 32 µM
T. brucei rhodesiense
  IC50: > 32 µM
[3]
  IC50: 2.05 µM
[4]
  IC50: > 32 µM
[5]
  IC50: > 30 µM
Infected PMM
  IC50: 30 µM
HepG2
  HepG2 PBox CC20: 27.9 µM

## Nc1ccc2ncnc(Nc3ccc(OCc4cccc(F)c4)c(Cl)c3)c2c1 [MMV688273]
[2]; [12]
  IC50: 4.03 µM
T. brucei brucei
  IC50: > 32 µM
T. brucei rhodesiense
  IC50: 13.1 µM
L. major
  IC50: 10.4 µM
[4]
  IC50: > 32 µM
HepG2
  HepG2 PBox CC20: 9.7 µM

## Nc1nc2ccc(-c3cncc(Oc4ccc(F)cc4)c3)cc2[nH]1 [MMV687248]
[1]; [16]
  IC50: 4 µM
[6]; HEK293
  selectivity index (SI) T. brucei brucei versus HEK293: > 20
[6]; HEPG2 (PBox data)
  selectivity index (SI) T. brucei brucei versus HEPG2: > 20
[6]; [17]
  IC50: 1.05 µM
HepG2; read-out: HepG2 PBox CC50 µM, HepG2 cytotoxicity
  CC50: 31.5 µM
[8]; 3D7, read-out: Pf 3D7 Discovery Biology IC50 µM, P. falciparum 3D7 asexual blood stage, Discovery Biology
  IC50: 1.52 µM
[10]
  selectivity ratio at 72 h: > 5

## CC(C)(C)OC(=O)N1CCN(c2cc(-c3ccc(Oc4ccccc4)cc3)n[nH]2)CC1 [MMV676057]
[2]; [12]
  IC50: 9.37 µM
T. brucei brucei
  IC50: 3.89 µM
T. brucei rhodesiense
  IC50: 2.7 µM
[3]
  IC50: 1.32 µM
L. major
  IC50: 13 µM
[4]
  IC50: 10.2 µM
[5]
  IC50: > 10 µM
Infected PMM
  IC50: 20 µM
HepG2
  HepG2 PBox CC20: 4.0 µM

## O=C(CN1CCOCC1)Nc1ccc2ncnc(Nc3ccc(OCc4cccc(F)c4)c(Cl)c3)c2c1 [MMV688274]
[2]; [12]
  IC50: 0.95 µM
T. brucei brucei
  IC50: 5.31 µM
T. brucei rhodesiense
  IC50: 3.07 µM
L. major
  IC50: 12.4 µM
[4]
  IC50: > 32 µM
HepG2
  HepG2 PBox CC20: 10.9 µM

## c1ccc(Oc2ccc(-c3cc(CN4CCOCC4)[nH]n3)cc2)cc1 [MMV676161]
[2]; [12]
  IC50: 16 µM
T. brucei brucei
  IC50: 15.1 µM
T. brucei rhodesiense
  IC50: 5.26 µM
[3]
  IC50: 9.7 µM
[4]
  IC50: > 32 µM
[5]
  IC50: 26.1 µM
Infected PMM
  IC50: 30 µM
HepG2
  HepG2 PBox CC20: 28.9 µM

## FC(F)(F)c1cc(NCCc2ccccc2)nc(-c2ccccn2)n1 [MMV659010]
[9]
  IC50: 1.71 µM
[2]; [12]
  IC50: 4.25 µM
T. brucei brucei
  IC50: > 32 µM
T. brucei rhodesiense
  IC50: 27.2 µM
[3]
  IC50: 0.25 µM
[4]
  IC50: 16.2 µM
[5]
  IC50: 5.17 µM
Infected PMM
  IC50: 30 µM
HepG2
  HepG2 PBox CC20: >80 µM
[8]; [15]
  IC50: > 8 µM
HEK293 cells; [13]
  IC50: > 20 µM

## O=C(Nc1c(O)cccc1-c1nc2c(C(=O)O)cccc2o1)c1cc(-c2ccccc2)on1 [MMV676008]
[2]; [12]
  IC50: > 32 µM
T. brucei brucei
  IC50: > 32 µM
T. brucei rhodesiense
  IC50: > 32 µM
[3]
  IC50: 0.57 µM
[4]
  IC50: > 32 µM
[5]
  IC50: > 30 µM
Infected PMM
  IC50: > 30 µM
HepG2
  HepG2 PBox CC20: 5.7 µM

## N#CCN(CCCCN1CCN(c2ccc(F)cc2)CC1)C(=O)OCc1ccccc1 [MMV675997]
[2]; [12]
  IC50: 4.62 µM
T. brucei brucei
  IC50: 24.9 µM
T. brucei rhodesiense
  IC50: 16.4 µM
[3]
  IC50: > 100 µM
[4]
  IC50: 25.4 µM
[5]
  IC50: 22.2 µM
Infected PMM
  IC50: > 30 µM

## O=C(Nc1ccccc1-c1nc2c(C(=O)O)cccc2o1)c1ccccc1 [MMV676162]
[2]; [12]
  IC50: > 32 µM
T. brucei brucei
  IC50: > 32 µM
T. brucei rhodesiense
  IC50: > 32 µM
[3]
  IC50: 0.4 µM
[4]
  IC50: > 32 µM
[5]
  IC50: > 30 µM
Infected PMM
  IC50: > 30 µM
HepG2
  HepG2 PBox CC20: >80 µM

## Cc1nc(-c2ccccn2)nc(N2CCC(Cc3ccccc3)C2)c1Cl (stereo not drawn) [MMV659004]
[9]
  IC50: 0.67 µM
[2]; [12]
  IC50: 0.97 µM
T. brucei brucei
  IC50: 6.61 µM
T. brucei rhodesiense
  IC50: 5.62 µM
[3]
  IC50: 0.03 µM
L. major
  IC50: 8.96 µM
[4]
  IC50: 4.03 µM
[5]
  IC50: 4.2 µM
Infected PMM
  IC50: 16.7 µM
HepG2
  HepG2 PBox CC20: 10.2 µM
[8]; [15]
  IC50: 1.86 µM
HEK293 cells; [13]
  IC50: > 20 µM

## c1ccc(-c2nc(NC3CCCCC3)cc(C3CC3)n2)nc1 [MMV021013]
[9]
  IC50: 0.19 µM
[1]; [16]
  IC50: 1.67 µM
[6]; [17]
  IC50: 3.51 µM
[7]; THP-1, read-out: IC50 L. donovani (Discovery Biology), PBox compounds, intracellular amastigotes
  IC50: 1.48 µM
P. falciparum ABS
  EC50: 0.73 µM
[8]; [15]
  IC50: 0.46 µM
[10]
  selectivity ratio at 72 h: > 5
HEK293 cells; [13]
  inhibition at 20 µM: 83%

## Clc1cccc(CO[C@H]2CCc3ccccc3[C@@H]2n2ccnn2)c1 [MMV676159]
[2]; [12]
  IC50: 3.08 µM
T. brucei brucei
  IC50: > 32 µM
T. brucei rhodesiense
  IC50: > 32 µM
[3]
  IC50: 6.6 µM
[4]
  IC50: > 32 µM
[5]
  IC50: > 30 µM
Infected PMM
  IC50: > 30 µM
HepG2
  HepG2 PBox CC20: >80 µM

## c1ccc(Oc2ccc(-c3cc(N4CCOCC4)[nH]n3)cc2)cc1 [MMV045105]
[2]; [12]
  IC50: 16 µM
T. brucei brucei
  IC50: 3.45 µM
T. brucei rhodesiense
  IC50: 1.29 µM
[3]
  IC50: 3.87 µM
[4]
  IC50: 21.5 µM
[5]
  IC50: > 30 µM
Infected PMM
  IC50: > 30 µM
HepG2
  HepG2 PBox CC20: 7.5 µM

## COC(=O)c1cccc2oc(-c3cccc(OC)c3NC(=O)c3cc(-c4ccccc4)on3)nc12 [MMV676186]
[2]; [12]
  IC50: > 32 µM
T. brucei brucei
  IC50: > 32 µM
T. brucei rhodesiense
  IC50: > 32 µM
[3]
  IC50: 3.95 µM
[4]
  IC50: > 32 µM
[5]
  IC50: > 30 µM
Infected PMM
  IC50: > 30 µM
HepG2
  HepG2 PBox CC20: >80 µM

## COc1ccc(C(=N)N)cc1-c1cn(-c2ccc(C(=N)N)cc2)nn1 [MMV675998]
[6]; [14]
  IC50: 0.27 µM
[2]; [12]
  IC50: 21.5 µM
T. brucei brucei
  IC50: 0.25 µM
T. brucei rhodesiense
  IC50: < 0.13 µM
[3]
  IC50: 14.3 µM
[4]
  IC50: > 32 µM
[5]
  IC50: > 30 µM
Infected PMM
  IC50: 30 µM
HepG2
  HepG2 PBox CC20: 5.5 µM
HEK293 cells; [13]
  IC50: > 20 µM

## Cc1nc(-c2ccccn2)nc(N(C)CCc2ccccc2)c1Cl [MMV658988]
[9]
  IC50: 0.3 µM
[1]; 8 μM
  activity against T. cruzi at 8 μM in the Discovery Biology assay: no activity
[2]; 7 days exposure, ref PBox supporting information, read-out: T. cruzi IC50 in the PBox supporting information file
  IC50: < 1 µM
[2]; [12]
  IC50: 0.88 µM
T. brucei brucei
  IC50: 14.9 µM
T. brucei rhodesiense
  IC50: 11.8 µM
[3]
  IC50: 0.02 µM
[4]
  IC50: 4.06 µM
[5]
  IC50: 2.6 µM
Infected PMM
  IC50: 16.7 µM
HepG2
  HepG2 PBox CC20: 11.3 µM
[8]; [15]
  IC50: 2.18 µM
HEK293 cells; [13]
  IC50: > 20 µM
